Test results from patent publication US9662371B2, “Treatment of autism and similar disorders” (Neuropharmacology Services, LLC, priority 2002, dated 2017).

Key:
[1] = tested on: adult patients diagnosed with autism or Asperger's disorder; test: Oxytocin vs placebo 4-hour intravenous infusion challenge, rating of six repetitive behaviors; type: in vivo, human
Source text: To evaluate the role of oxytocin in treating autism spectrum disorders, fifteen adult patients (mean age=32.9 years, range=19.4-55.6) (14 male, 1 female) diagnosed with autism (N=6) or Asperger's disorder (N=9) received oxytocin and placebo challenges during visits separated by 2-3 weeks to the General Clinical Research Center of the Department of Psychiatry, Seaver Autism Research Center at the Mount Sinai School of Medicine (New York, N.Y.).
Patients and their guardians signed written informed consent agreements, and the study was carried out in accordance with the Declaration of Helsinki as adopted and promulgated by the National Institutes of Health. All patents were medically healthy, without a current or past history of schizophrenia, psychotic disorders, substance abuse, other Axis I mental disorders, or seizure disorders. Patients were of average intelligence, with a mean IQ (±SD) of 90.33 (±9.90) (range=74-110). Nine patients were medication free for greater than one year prior to the study; three patents were medication free for greater than six weeks prior to the study (one was previously on fluoxetine, one on sertraline and one on bupropion); and the remaining three patents were medication free for a minimum of two weeks prior to and throughout the study (one was previously on fluvoxamine and risperidone, one on sertraline and one on clonazepam).
Each individual subject underwent two identical challenge days in which they received a continuous infusion over 4 hours of synthetic oxytocin (Pitocin®) or placebo.
(§1) All subjects were admitted into the General Clinical Research Center on the evening prior to each challenge. Following an overnight fast, the subject was awakened at 8:00 AM and an indwelling intravenous catheter inserted. At 8:30 AM vital signs were taken, and these continued to be monitored every half-hour. At 9:00 AM, 6 cc of blood were drawn and the oxytocin/placebo infusion was administered in a randomized double-blind fashion. The initial vial of Pitocin® (10 u/mL) combined aseptically with a 1.0 L bag of normal saline was first given at a rate of 10 mL/hr which is equivalent to a dose rate of 0.1 units/hour. The infusion was initiated at a low rate to minimize potential side effects, and the rate gradually titrated up. Specifically, the dose rate was titrated every 15 minutes by 25 mL/hour in the first hour, 50 mL/hour in the second hour, 100 mL/hour in the third hour, and held constant at the maximum rate of 700 mL/hr during the fourth hour. This created a range of dosing from 0.1 U/hour to 7 U/hour. See below:
The combined solution, rotated in an infusion bottle to insure thorough mixing, was added to the system by a constant infusion pump to accurately control the rate of infusion.
(§2) Staff members were given specific instructions to discontinue increasing the rate of infusion if the patient experienced significant side effects. In order to assess possible cardiovascular effects, blood pressure and pulse were recorded every half hour. Oral temperature was recorded every hour. All fifteen subjects returned in 2-3 weeks for an identical challenge administered with the other infusion substance.
Severity of repetitive autistic behaviors was evaluated using a method developed during past research with the autistic population. Six behaviors were assessed: need to know, repeating, ordering, need to tell/ask, self-injury, and touching. The ratings were completed at baseline (O), 60, 120, 180, and 240 minutes and reported. The frequency of each of the six repetitive behaviors was recorded using a four point ordinal scale with the following values: 0=never, 1=rarely, 2=sometimes, 3=constantly. These ratings were done following a 15 to 20 minute interview during which several other measures were administered and the rater had the opportunity to observe the patient's behavior in this domain. […]

[2] = tested on: adult patients diagnosed with autism or Asperger's disorder; test: Side effects and vital signs (blood pressure, pulse, oral temperature) during the oxytocin infusion challenge; type: in vivo, human
Method: as §1, §2
A repeated measure analysis of variance (ANOVA) was conducted looking at the two infusions (oxytocin vs. placebo) over time (0, 60, 120, 180 and 240 minutes). A logarithmic transformation was done for the repetitive behavior ratings because the data were not normally distributed. Baseline differences on the oxytocin vs. placebo days were examined using paired sample t-tests. Differences in response between patients with autism and patients with Asperger's disorder were examined using independent sample t-tests. […]

[3] = baseline (0) to endpoint (240 minutes), 15 patients, FIG. 2

`CC[C@H](C)[C@@H]1NC(=O)[C@H](Cc2ccc(O)cc2)NC(=O)[C@@H](N)CSSC[C@@H](C(=O)N2CCC[C@H]2C(=O)N[C@@H](CC(C)C)C(=O)NCC(N)=O)NC(=O)[C@H](CC(N)=O)NC(=O)[C@H](CCC(N)=O)NC1=O` [oxytocin] was tested, and the “individual dimensions of repetitive behavior, oxytocin versus placebo infusions over time” value ([1]; ANOVA of individual items, at p<0.05) was “no significant differences”, the “main effect for drug on repetitive behaviors” value ([1]; ANOVA, F=1.835, df=1, 13, p=0.199) was “no significant main effect” and the “total number of repetitive behaviors observed following administration” value ([1]; autistic study group, FIG. 1 (dashed line)) was “appears to decrease”. The “patients with an increase in repetitive behaviors” value [1, 3] was 1 patient, the “patients with no change in repetitive behaviors” value [1, 3] was 1 patient and the “response of patients with autism versus patients with Asperger's disorder following oxytocin infusion” value ([1]; independent sample t-test, t=0.687, df=13, p=0.504) was “did not differ”. For the same compound, the “number of different types of repetitive behavior at endpoint” value ([1]; individuals who responded to oxytocin, endpoint (240 minutes)) was “none or one”, the “reduction in repetitive behaviors over time following oxytocin compared to placebo” value ([1]; repeated measures ANOVA, 0-240 min, drug×time interaction F=3.487, df=4, 52, p=0.027, FIG. 1) was “significantly greater reduction” and the “touching behavior, oxytocin versus placebo over time” value ([1]; time×drug interaction F=2.444, df=4, 52, p=0.093 (p<0.10)) was “directional difference”. For the same compound, the “repeating behavior, oxytocin versus placebo over time” value ([1]; time×drug interaction F=2.70, df=4, 52, p=0.086 (p<0.10)) was “directional difference”, the “effects of infusion on blood pressure, pulse, or temperature” value ([2]; 4-hour infusion, 0.1 U/hour to 7 U/hour) was “no significant effects” and the side effects ([2]; 4-hour infusion, drowsiness, anxiety, depression, headache, tingling, backache, trembling, restlessness, stomach cramps, enuresis) was “mild”. For the same compound, the “relationship between presence or number of side effects and behavioral response” value ([2]; chi square analysis) was “no relationship”.
